Like-named read-outs stand apart in the source and are kept apart here.
Key:
Test in all cases: microbe, parasite or virus in culture
Format in all cases: cell-based, Hepatitis C virus (HCV)
[1] = test system: HCV replicon 1AY93H; details: Replicon Assay A
Outline: (§1)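 Three-day treatment of replicon cells (2000/well, 5% FBS, 0.5% DMSO), followed by TaqMan RT-PCR of replicon RNA with cyclophilin as internal control.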

[2] = test system: HCV replicon 1A; details: Replicon Assay A
Outline: as §1

[3] = test system: HCV replicon 2B; details: Replicon Assay A
Outline: as §1

[4] = test system: HCV replicon 1AQ30D; details: Replicon Assay B
[5] = test system: HCV replicon 1B; details: Replicon Assay B
[6] = Hepatitis C virus, read-out: 1A Y93H IC50 (nM), replicon 1AY93H
[7] = Hepatitis C virus, read-out: 2B IC50 (nM), replicon 2B
[8] = Hepatitis C virus, read-out: 1A Q30D IC50 (nM), replicon 1AQ30D
[9] = read-out: 1A Y93H IC50, HCV replicon 1A Y93H
[10] = read-out: 2B IC50, HCV replicon 2B
[11] = read-out: 1A Q30D IC50, HCV replicon 1A Q30D
[12] = read-out: 1A Y93H IC50, replicon 1AY93H
[13] = read-out: 1A Q30D IC50, replicon 1AQ30D
[14] = Hepatitis C virus, HCV replicon 1A
[15] = Hepatitis C virus, read-out: 1A Q30D IC50, HCV replicon 1A Q30D
[16] = Hepatitis C virus, HCV replicon 1B

SMILES | IC50 ([2]; Hepatitis C virus, replicon 1A) [pM] | IC50 [4, 8] [nM] | IC50 ([5]; Hepatitis C virus, replicon 1B) [pM] | IC50 [1, 12] [nM] | IC50 ([2]; replicon 1A) [pM] | IC50 ([3]; read-out: 2B IC50, replicon 2B) [nM] | IC50 [4, 13] [nM] | also measured
COC(=O)NC(C(=O)N1CCC[C@H]1c1ncc(-c2cc(F)c3c(c2)OC(c2ccc(C4CCC4)s2)n2c-3cc3cc(-c4cnc([C@@H]5CCCN5C(=O)[C@@H](NC(=O)OC)C5CCOCC5)[nH]4)ccc32)[nH]1)C(C)(C)F (stereo partly shown) [Compound 250] | 2.2 | 0.013 | 2.9 | – | – | – | – | IC50 [1, 6]: 0.003 nM; IC50 [3, 7]: 0.001 nM
COC(=O)N[C@H](C(=O)N1CCC[C@H]1c1ncc(-c2cc(C)c3c(c2)OC(c2ccc(C4CC4)s2)n2c-3cc3cc(-c4cnc([C@@H]5C[C@H]6C[C@H]6N5C(=O)[C@@H](NC(=O)OC)C5CCOCC5)[nH]4)ccc32)[nH]1)C(C)C (single isomer, unassigned) [Compound 764] | – | – | – | – | – | – | – | IC50 [1, 9]: 0.0044 nM; IC50 ([2]; HCV replicon 1A): 3.6 pM; IC50 [3, 10]: 0.0052 nM; IC50 [4, 11]: 0.024 nM; IC50 ([5]; HCV replicon 1B): 2.2 pM
COC(=O)NC(C(=O)N1[C@@H]2C[C@@H]2C[C@H]1c1ncc(-c2ccc3c(c2)cc2n3C(c3ccc(C4CC4)s3)Oc3cc(-c4cnc([C@@H]5CCCN5C(=O)[C@@H](NC(=O)OC)C(C)C)[nH]4)cc(F)c3-2)[nH]1)C1C[C@@H](C)O[C@@H](C)C1 (single isomer, unassigned) [Compound 273] | – | – | – | 0.18 | 1.5 | 0.74 | 2.06 | IC50 ([5]; replicon 1B): 2 pM
COC(=O)N[C@H](C(=O)N1CCC[C@H]1c1ncc(-c2cc(F)c3c(c2)OC(c2ccc(C#N)s2)n2c-3cc3cc(-c4cnc([C@@H]5CCCN5C(=O)[C@@H](NC(=O)OC)C(C)C)[nH]4)ccc32)[nH]1)C(C)C (single isomer, unassigned) [Compound 18] | – | – | – | 3.13 | 2.2 | 3.46 | 66.7 | IC50 ([5]; replicon 1B): 3 pM
CCCc1ccc(C2Oc3cc(-c4cnc([C@@H]5CCCN5C(=O)[C@@H](NC(=O)OC)C(C)C)[nH]4)cc(F)c3-c3cc4cc(-c5cnc([C@@H]6CCCN6C(=O)[C@@H](NC(=O)OC)C6CCOCC6)[nH]5)ccc4n32)s1 (single isomer, unassigned) [Compound 347] | – | – | – | 0.0023 | 1.9 | 0.0028 | 0.0129 | IC50 ([5]; replicon 1B): 2.6 pM
COC(=O)N[C@H](C(=O)C1CCC[C@H]1c1ncc(-c2ccc3c(c2)cc2n3C(c3ccc(C(F)(F)F)s3)Oc3cc(-c4cnc([C@@H]5CCCN5C(=O)[C@@H](NC(=O)OC)C(C)C)[nH]4)cc(F)c3-2)[nH]1)C(C)C (single isomer, unassigned) [Compound 89] | 1 | 0.33 | 1.5 | 0.033 | – | 0.063 | – | –
COC(=O)NC(C(=O)N1CCC[C@H]1c1ncc(-c2ccc3c(c2)cc2n3C(c3ccc(C4CC4)s3)Oc3cc(-c4cnc([C@@H]5CCCN5C(=O)[C@@H](NC(=O)OC)C(C)C)[nH]4)cc(F)c3-2)[nH]1)C1C2COCC21 (single isomer, unassigned) [Compound 339] | – | 0.133 | 2.2 | 0.0047 | 2 | 0.0292 | – | –
CCc1ccc(C2Oc3cc(-c4cnc([C@@H]5CCCN5C(=O)[C@@H](NC(=O)OC)C(C)C)[nH]4)cc(F)c3-c3cc4cc(-c5cnc([C@@H]6C[C@@H](F)CN6C(=O)C(NC(=O)OC)C6CCOC(C)(C)C6)[nH]5)ccc4n32)s1 (single isomer, unassigned) [Compound 258] | – | – | 2.7 | 0.004 | 1.8 | 0.43 | 1.2 | –
COC(=O)NC(C(=O)N1CCC[C@H]1c1ncc(-c2ccc3c(c2)cc2n3C(c3ccc(C4CC4)s3)Oc3cc(-c4cnc([C@@H]5CCCN5C(=O)[C@@H](NC(=O)OC)C(C)C)[nH]4)cc(F)c3-2)[nH]1)C1C[C@@H](C)O[C@@H](C)C1 (stereo partly shown) [Compound 208] | 3.1 | 0.043 | 3.2 | – | – | – | – | IC50 [1, 6]: 0.008 nM; IC50 [3, 7]: 0.005 nM
COC(=O)N[C@H](C(=O)N1CCC[C@H]1c1ncc(-c2ccc3c(c2)OC(c2ccc(C4CC4)s2)n2c-3c(F)c3cc(-c4cnc([C@@H]5C[C@H]6C[C@H]6N5C(=O)[C@@H](NC(=O)OC)C5C[C@@H](C)O[C@@H](C)C5)[nH]4)ccc32)[nH]1)C(C)C (single isomer, unassigned) [Compound 406] | – | – | – | – | – | – | – | IC50 ([1]; Hepatitis C virus, read-out: 1A Y93H IC50, HCV replicon 1A Y93H): 0.0041 nM; IC50 [2, 14]: 2.3 pM; IC50 ([3]; Hepatitis C virus, read-out: 2B IC50, HCV replicon 2B): 0.0161 nM; IC50 [4, 15]: 0.0824 nM; IC50 [5, 16]: 2.8 pM
COC(=O)N[C@H](C(=O)N1CCC[C@H]1c1ncc(-c2cc(F)c3c(c2)OC(c2ccc(C4CC4)s2)n2c-3cc3cc(-c4cnc([C@@H]5CCCN5C(=O)[C@@H](NC(=O)OC)C5CCOCC5)[nH]4)ccc32)[nH]1)C1CCOCC1 (single isomer, unassigned) [Compound 279] | 2.3 | – | 2.9 | 0.21 | – | 0.017 | 0.92 | –
CCCc1ccc(C2Oc3cc(-c4cnc([C@@H]5CCCN5C(=O)[C@@H](NC(=O)OC)C(C)C)[nH]4)cc(F)c3-c3cc4cc(-c5cnc([C@@H]6CCCN6C(=O)C(NC(=O)OC)C6C[C@@H](C)O[C@@H](C)C6)[nH]5)ccc4n32)s1 (single isomer, unassigned) [Compound 369] | 1 | – | 1.8 | 0.0739 | – | 0.115 | 0.912 | –
COC(=O)NC(C(=O)N1CCC[C@H]1c1ncc(-c2ccc3c(c2)cc2n3C(c3ccc(C4CC4)s3)Oc3cc(-c4cnc([C@@H]5CCCN5C(=O)[C@@H](NC(=O)OC)C(C)C)[nH]4)cc(F)c3-2)[nH]1)C1CCCCO1 (single isomer, unassigned) [Compound 340] | 1.1 | – | 2.5 | 0.0207 | – | 0.0212 | 0.2 | –
COC(=O)NC(C(=O)N1CCCC1c1ncc(-c2cc(F)c3c(c2)OC(c2cc4c(s2)CC(C)(C)C4)n2c-3cc3cc(-c4cnc(C5CCCN5C(=O)C(NC(=O)OC)C(C)C)[nH]4)ccc32)[nH]1)C(C)C (mixture of isomers) [Compound 846] | – | – | – | – | – | – | – | IC50 ([1]; HCV replicon 1A Y93H, read-out: 1A Y93H IC50): 0.034 nM; IC50 ([2]; HCV replicon 1A): 2.9 pM; IC50 ([3]; HCV replicon 2B, read-out: 2B IC50): 0.039 nM; IC50 ([4]; HCV replicon 1A Q30D, read-out: 1A Q30D IC50): 0.302 nM; IC50 ([5]; HCV replicon 1B): 2.8 pM
COC(=O)N[C@H](C(=O)N1CCC[C@H]1c1ncc(-c2cc(F)c3c(c2)OC(c2cc4nccnc4s2)n2c-3cc3cc(-c4cnc([C@@H]5CCCN5C(=O)[C@@H](NC(=O)OC)C(C)C)[nH]4)ccc32)[nH]1)C(C)C (single isomer, unassigned) [Compound 48] | – | 0.54 | 1.7 | 0.027 | 1.9 | 0.016 | – | –
COC(=O)NC(C(=O)N1CCC[C@H]1c1ncc(-c2ccc3c(c2)cc2n3C(c3cc4nccnc4s3)Oc3cc(-c4cnc([C@@H]5CCCN5C(=O)[C@@H](NC(=O)OC)C(C)C)[nH]4)cc(F)c3-2)[nH]1)C1C[C@@H](C)O[C@@H](C)C1 (single isomer, unassigned) [Compound 372] | – | 0.0964 | 3.2 | 0.0051 | 2.2 | 0.0064 | – | –
COC(=O)NC(C(=O)N1[C@@H]2C[C@@H]2C[C@H]1c1ncc(-c2ccc3c(c2)cc2n3C(c3ccc(CC4CC4)s3)Oc3cc(-c4cnc([C@@H]5CCCN5C(=O)[C@@H](NC(=O)OC)C(C)C)[nH]4)cc(F)c3-2)[nH]1)C1CCOC(C)(C)C1 (single isomer, unassigned) [Compound 418] | – | – | – | – | – | – | – | IC50 [1, 9]: 0.093 nM; IC50 ([2]; HCV replicon 1A): 2.7 pM; IC50 [3, 10]: 0.16 nM; IC50 [4, 11]: 0.862 nM; IC50 ([5]; HCV replicon 1B): 2.7 pM
COC(=O)NC(C(=O)N1CCC[C@H]1c1ncc(-c2ccc3c(c2)cc2n3C(c3ccc(C(C)C)s3)Oc3cc(-c4cnc([C@@H]5CCCN5C(=O)[C@@H](NC(=O)OC)C(C)C)[nH]4)cc(C)c3-2)[nH]1)C1C[C@@H](C)O[C@@H](C)C1 (single isomer, unassigned) [Compound 366] | – | 0.0759 | 1.5 | 0.0123 | 1.9 | 0.0053 | – | –
COC(=O)N[C@H](C(=O)N1CCC[C@H]1c1ncc(-c2ccc3c(c2)cc2n3C(c3ccc(C4CC4)s3)Oc3cc(-c4cnc([C@@H]5CCCN5C(=O)[C@@H](NC(=O)OC)C5CCOCC5)[nH]4)cc(C)c3-2)[nH]1)C(C)C (single isomer, unassigned) [Compound 123] | – | – | – | 0.59 | 1.2 | 0.064 | 0.38 | IC50 ([5]; replicon 1B): 3.1 pM
COC(=O)N[C@H](C(=O)N1CCC[C@H]1c1ncc(-c2cc(F)c3c(c2)OC(c2ccc(C(F)(F)F)s2)n2c-3cc3cc(-c4cnc([C@@H]5CCCN5C(=O)[C@@H](NC(=O)OC)C5CCOCC5)[nH]4)ccc32)[nH]1)C(C)C (single isomer, unassigned) [Compound 654] | – | – | – | – | – | – | – | IC50 [1, 9]: 0.0095 nM; IC50 [2, 14]: 1.1 pM; IC50 [3, 10]: 0.0061 nM; IC50 [4, 15]: 0.0839 nM; IC50 [5, 16]: 2 pM
